Biological target: T1, Recombinant human KIF18A (1-467 His-tagged) (Homo sapiens, UniProt Q8NI77)
T1 construct: Recombinant human KIF18A (1-467 His-tagged) protein; His
Assay: KIF18A Enzyme Assay: microtubule-stimulated ATPase activity (ADP-Glo)
Assay type: biochemical
Conditions: 30 nM KIF18A, 30 μg/mL pig microtubules, ATP 75 μM (Km), ADP-Glo luminescence
Description: KIF18A Enzyme Assay: Microtubule-stimulated ATPase activity assay is used to measure KIF18A enzyme activity after treatment with compound. Compounds were 2-fold serially diluted in DMSO (Sigma Inc) over 22-point concentration range. […] The assay measures ADP formed from the ATPase reaction. […] Read luminescence using EnVision microplate reader with ultra-luminescence module (Perkin Elmer Inc). Concentration-response curve-fitting and IC50 determination was performed using Genedata Screener Software (Standard 15.0.1, Genedata Inc) with a four-parameter logistic regression fit model.

T1 sequence (Q8NI77 1-467): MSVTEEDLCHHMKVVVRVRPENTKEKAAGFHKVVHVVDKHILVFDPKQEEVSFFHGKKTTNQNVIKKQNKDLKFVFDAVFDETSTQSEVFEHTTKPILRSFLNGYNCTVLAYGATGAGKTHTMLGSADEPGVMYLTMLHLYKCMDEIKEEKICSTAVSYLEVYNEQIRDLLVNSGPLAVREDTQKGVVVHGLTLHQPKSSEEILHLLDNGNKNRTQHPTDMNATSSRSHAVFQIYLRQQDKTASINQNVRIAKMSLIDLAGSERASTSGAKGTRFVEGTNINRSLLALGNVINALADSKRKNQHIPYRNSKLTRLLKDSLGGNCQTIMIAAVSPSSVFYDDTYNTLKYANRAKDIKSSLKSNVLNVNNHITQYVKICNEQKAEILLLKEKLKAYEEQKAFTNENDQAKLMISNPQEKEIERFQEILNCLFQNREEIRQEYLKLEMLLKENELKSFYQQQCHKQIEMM
T1 sequence (P02550 whole entry partner): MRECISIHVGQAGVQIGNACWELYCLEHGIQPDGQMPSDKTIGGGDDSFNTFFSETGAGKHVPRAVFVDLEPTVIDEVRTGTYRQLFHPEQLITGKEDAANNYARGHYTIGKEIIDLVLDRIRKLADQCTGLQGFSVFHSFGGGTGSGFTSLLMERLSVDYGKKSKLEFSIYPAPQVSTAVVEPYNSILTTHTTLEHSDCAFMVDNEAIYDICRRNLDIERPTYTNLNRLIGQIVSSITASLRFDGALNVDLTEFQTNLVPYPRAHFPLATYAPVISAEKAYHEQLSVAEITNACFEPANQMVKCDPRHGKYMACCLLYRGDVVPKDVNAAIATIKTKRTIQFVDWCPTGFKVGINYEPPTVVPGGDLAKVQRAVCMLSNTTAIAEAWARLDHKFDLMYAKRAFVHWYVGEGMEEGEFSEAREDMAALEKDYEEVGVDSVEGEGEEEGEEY
T1 sequence (P02554 whole entry partner): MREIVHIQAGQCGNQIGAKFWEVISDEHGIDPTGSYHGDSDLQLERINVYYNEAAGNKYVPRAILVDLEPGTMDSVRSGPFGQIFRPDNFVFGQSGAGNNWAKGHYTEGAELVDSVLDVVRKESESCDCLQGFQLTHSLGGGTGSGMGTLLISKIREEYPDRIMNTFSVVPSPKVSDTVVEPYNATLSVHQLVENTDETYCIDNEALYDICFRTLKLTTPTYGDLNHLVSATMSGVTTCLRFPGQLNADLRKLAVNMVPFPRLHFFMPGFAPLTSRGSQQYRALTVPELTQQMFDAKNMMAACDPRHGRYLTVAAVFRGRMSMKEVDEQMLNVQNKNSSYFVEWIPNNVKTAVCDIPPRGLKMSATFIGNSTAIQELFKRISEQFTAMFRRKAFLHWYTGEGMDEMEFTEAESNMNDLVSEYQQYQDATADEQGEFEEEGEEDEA

| IC50 [nM] | Compound |
| --- | --- |
| 59 | Cc1cc(NC(=O)c2ccc(S(=N)(=O)C3CC3)cc2N2CCC3(CC2)CC3)nc(N2CCO[C@H](C)C2)c1 (stereo in doubt) [Example 29-2, 2-(6-Azaspiro[2.5]octan-6-yl)-4-(R-cyclopropylsulfonimidoyl)-N-(4-methyl-6-((2R)-2-methyl-4-morpholinyl)-2-pyridinyl)benzamide] |
| 42 | Cc1cc(NC(=O)c2ccc(S(=N)(=O)C3CC3)cc2N2CCC3(CC2)CC3)nc(N2CCC(F)(F)CC2)c1 (stereo in doubt) [Example 30-2, 2-(6-Azaspiro[2.5]octan-6-yl)-4-(R-cyclopropylsulfonimidoyl)-N-(6-(4,4-difluoro-1-piperidinyl)-4-methyl-2-pyridinyl)benzamide] |
| 12 | O=C(Nc1cccc(OCCC(F)(F)F)n1)c1ccc(S(=O)(=O)NCCO)cc1N1CCC2(CC1)CC2 [Example 1, 4-(N-(2-Hydroxyethyl)sulfamoyl)-2-(6-azaspiro[2.5]octan-6-yl)-N-(6-(3,3,3-trifluoropropoxy)pyridin-2-yl)benzamide] |
| 16 | C[C@@H]1CN(c2cccc(NC(=O)c3ccc(S(=O)(=O)NCCO)cc3N3CCC4(CC3)CC4)n2)CCO1 [Example 1-1, (R)-4-(N-(2-Hydroxyethyl)sulfamoyl)-N-(6-(2-methylmorpholino)pyridin-2-yl)-2-(6-azaspiro[2.5]octan-6-yl)benzamide] |
| 32 | Cc1cc(NC(=O)c2ccc(S(=O)(=O)NCCO)cc2N2CCC3(CC2)CC3)nc(N2CCC(F)(F)CC2)c1 [Example 1-2, N-(6-(4,4-Difluoropiperidin-1-yl)-4-methylpyridin-2-yl)-4-(N-(2-hydroxyethyl)sulfamoyl)-2-(6-azaspiro[2.5]octan-6-yl)benzamide] |
| 44 | CNS(=O)(=O)c1ccc(C(=O)Nc2cccc(N3CCO[C@H](C)C3)n2)c(N2CCC3(CC2)CC3)c1 [Example 1-3, (R)-N-(6-(2-Methylmorpholino)pyridin-2-yl)-4-(N-methylsulfamoyl)-2-(6-azaspiro[2.5]octan-6-yl)benzamide] |
| 46 | C[C@@H]1CN(c2cccc(NC(=O)c3ccc(S(=O)(=O)NC(C)(C)CO)cc3N3CCC4(CC3)CC4)n2)CCO1 [Example 1-4, (R)-4-(N-(1-Hydroxy-2-methylpropan-2-yl)sulfamoyl)-N-(6-(2-methylmorpholino)pyridin-2-yl)-2-(6-azaspiro[2.5]octan-6-yl)benzamide] |
| 47 | CC(CO)NS(=O)(=O)c1ccc(C(=O)Nc2cccc(N3CCO[C@H](C)C3)n2)c(N2CCC3(CC2)CC3)c1 (stereo partly drawn) [Example 1-5, 4-(N-(1-Hydroxypropan-2-yl)sulfamoyl)-N-(6-((R)-2-methylmorpholino)pyridin-2-yl)-2-(6-azaspiro[2.5]octan-6-yl)benzamide] |
| 51 | C[C@@H]1CN(c2cccc(NC(=O)c3ccc(S(=O)(=O)NC(C)(C)C)cc3N3CCC4(CC3)CC4)n2)CCO1 [Example 1-6, (R)-4-(N-(tert-Butyl)sulfamoyl)-N-(6-(2-methylmorpholino)pyridin-2-yl)-2-(6-azaspiro[2.5]octan-6-yl)benzamide] |
| 67 | C[C@@H]1CN(c2cccc(NC(=O)c3ccc(S(=O)(=O)N4CCC4)cc3N3CCC4(CC3)CC4)n2)CCO1 [Example 1-7, (R)-4-(Azetidin-1-ylsulfonyl)-N-(6-(2-methylmorpholino)pyridin-2-yl)-2-(6-azaspiro[2.5]octan-6-yl)benzamide] |
| 119 | Cc1cc(NC(=O)c2ccc(S(=O)(=O)NC3(C)COC3)cc2N2CCC3(CC2)CC3)nc(N2CCO[C@H](C)C2)c1 [Example 1-8, (R)-N-(4-Methyl-6-(2-methylmorpholino)pyridin-2-yl)-4-(N-(3-methyloxetan-3-yl)sulfamoyl)-2-(6-azaspiro[2.5]octan-6-yl)benzamide] |
| 120 | CCC(CO)NS(=O)(=O)c1ccc(C(=O)Nc2cccc(N3CCO[C@H](C)C3)n2)c(N2CCC3(CC2)CC3)c1 (stereo partly drawn) [Example 1-9, 4-(N-(1-Hydroxybutan-2-yl)sulfamoyl)-N-(6-((R)-2-methylmorpholino)pyridin-2-yl)-2-(6-azaspiro[2.5]octan-6-yl)benzamide] |
| 222 | Cc1cc(NC(=O)c2ccc(S(=O)(=O)NC(C)(C)C)cc2N2CCC3(CC2)CC3)nc(N2CCOCC2)c1 [Example 1-10, 4-(N-(tert-Butyl)sulfamoyl)-N-(4-methyl-6-morpholinopyridin-2-yl)-2-(6-azaspiro[2.5]octan-6-yl)benzamide] |
| 566 | C[C@@H]1CN(c2cccc(NC(=O)c3ccc(S(=O)(=O)N4CC(C)(C)C4)cc3N3CCC4(CC3)CC4)n2)CCO1 [Example 1-11, (R)-4-((3,3-Dimethylazetidin-1-yl)sulfonyl)-N-(6-(2-methylmorpholino)pyridin-2-yl)-2-(6-azaspiro[2.5]octan-6-yl)benzamide] |
| 458 | C[C@@H]1CN(c2cccc(NC(=O)c3ccc(S(=O)(=O)N4CC(C)(C#N)C4)cc3N3CCC4(CC3)CC4)n2)CCO1 [Example 1-12, (R)-4-((3-Cyano-3-methylazetidin-1-yl)sulfonyl)-N-(6-(2-methylmorpholino)pyridin-2-yl)-2-(6-azaspiro[2.5]octan-6-yl)benzamide] |
| 209 | C[C@@H]1CN(c2cccc(NC(=O)c3ccc(S(=O)(=O)N4CC(C#N)C4)cc3N3CCC4(CC3)CC4)n2)CCO1 [Example 1-13, (R)-4-((3-Cyanoazetidin-1-yl)sulfonyl)-N-(6-(2-methylmorpholino)pyridin-2-yl)-2-(6-azaspiro[2.5]octan-6-yl)benzamide] |
| 34 | CC(C)S(=O)(=O)c1ccc(C(=O)Nc2cccc(N3CCO[C@H](C)C3)n2)c(N2CCC3(CC2)CC3)c1 [Example 2, (R)-4-(Isopropylsulfonyl)-N-(6-(2-methylmorpholino)pyridin-2-yl)-2-(6-azaspiro[2.5]octan-6-yl)benzamide] |
| 32 | C[C@@H]1CN(c2cccc(NC(=O)c3ccc(S(=O)(=O)CCO)cc3N3CCC4(CC3)CC4)n2)CCO1 [Example 2-1, (R)-4-((2-Hydroxyethyl)sulfonyl)-N-(6-(2-methylmorpholino)pyridin-2-yl)-2-(6-azaspiro[2.5]octan-6-yl)benzamide] |
| 78 | C[C@@H]1CN(c2cccc(NC(=O)c3ccc(S(=O)(=O)C(C)(C)C)cc3N3CCC4(CC3)CC4)n2)CCO1 [Example 2-2, (R)-4-(tert-Butylsulfonyl)-N-(6-(2-methylmorpholino)pyridin-2-yl)-2-(6-azaspiro[2.5]octan-6-yl)benzamide] |
| 141 | C[C@@H]1CN(c2cccc(NC(=O)c3ccc(S(=O)(=O)C4(C)COC4)cc3N3CCC4(CC3)CC4)n2)CCO1 [Example 2-3, (R)-N-(6-(2-Methylmorpholino)pyridin-2-yl)-4-((3-methyloxetan-3-yl)sulfonyl)-2-(6-azaspiro[2.5]octan-6-yl)benzamide] |
| 38 | C[C@@H]1CN(c2cccc(NC(=O)c3ccc(S(=O)(=O)C4COC4)cc3N3CCC4(CC3)CC4)n2)CCO1 [Example 2-4, (R)-N-(6-(2-Methylmorpholino)pyridin-2-yl)-4-(oxetan-3-ylsulfonyl)-2-(6-azaspiro[2.5]octan-6-yl)benzamide] |
| 51 | C[C@@H]1CN(c2cccc(NC(=O)c3ccc(S(=O)(=O)C(C)(C)CO)cc3N3CCC4(CC3)CC4)n2)CCO1 [Example 2-5, (R)-4-((1-Hydroxy-2-methylpropan-2-yl)sulfonyl)-N-(6-(2-methylmorpholino)pyridin-2-yl)-2-(6-azaspiro[2.5]octan-6-yl)benzamide] |
| 110 | C[C@@H]1CN(c2cccc(NC(=O)c3ccc(S(=O)(=O)CC(C)(C)O)cc3N3CCC4(CC3)CC4)n2)CCO1 [Example 2-6, (R)-4-((2-Hydroxy-2-methylpropyl)sulfonyl)-N-(6-(2-methylmorpholino)pyridin-2-yl)-2-(6-azaspiro[2.5]octan-6-yl)benzamide] |
| 103 | Cc1cc(NC(=O)c2ccc(S(=O)(=O)CCO)cc2N2CCC3(CC2)CC3)nc(N2CCO[C@H](C)C2)c1 [Example 2-7, (R)-4-((2-Hydroxyethyl)sulfonyl)-N-(4-methyl-6-(2-methylmorpholino)pyridin-2-yl)-2-(6-azaspiro[2.5]octan-6-yl)benzamide] |
| 46 | CC1(S(=O)(=O)Nc2ccc(C(=O)Nc3cccc(N4CCC[C@@H](O)C4)n3)c(N3CCC4(CC3)CC4)c2)CC1 [Example 3, (R)-N-(6-(3-Hydroxypiperidin-1-yl)pyridin-2-yl)-4-((1-methylcyclopropane)-1-sulfonamido)-2-(6-azaspiro[2.5]octan-6-yl)benzamide] |
| 56 | CC1(S(=O)(=O)Nc2ccc(C(=O)Nc3cccc(N4CCC[C@H](O)C4)n3)c(N3CCC4(CC3)CC4)c2)CC1 [Example 3-1, (S)-N-(6-(3-Hydroxypiperidin-1-yl)pyridin-2-yl)-4-((1-methylcyclopropane)-1-sulfonamido)-2-(6-azaspiro[2.5]octan-6-yl)benzamide] |
| 359 | CC1(O)CCN(c2cccc(NC(=O)c3ccc(NS(=O)(=O)C4(C)CC4)cc3N3CCC4(CC3)CC4)n2)C1 (centres unmarked) [Example 3-2, N-(6-(3-Hydroxy-3-methylpyrrolidin-1-yl)pyridin-2-yl)-4-((1-methylcyclopropane)-1-sulfonamido)-2-(6-azaspiro[2.5]octan-6-yl)benzamide] |
| 96 | CC(C)(C)NS(=O)(=O)c1ccc(C(=O)Nc2cccc(N3CCC[C@H](O)C3)n2)c(N2CCC3(CC2)CC3)c1 [Example 3-3, (S)-4-(N-(tert-Butyl)sulfamoyl)-N-(6-(3-hydroxypiperidin-1-yl)pyridin-2-yl)-2-(6-azaspiro[2.5]octan-6-yl)benzamide] |
| 149 | CC(C)(C)NS(=O)(=O)c1ccc(C(=O)Nc2cccc(NC3(CO)COC3)n2)c(N2CCC3(CC2)CC3)c1 [Example 3-4, 4-(N-(tert-Butyl)sulfamoyl)-N-(6-((3-(hydroxymethyl)oxetan-3-yl)amino)pyridin-2-yl)-2-(6-azaspiro[2.5]octan-6-yl)benzamide] |

— patent US12459932B2, “KIF18A inhibitors” (AMGEN INC., priority 2018, dated 2025)
